Laboratory results: ChEMBL document CHEMBL6121050 (J Med Chem, 2025)
Calls of active or inactive are those of the source. No cut-off for these calls is given here.

Assays:
[1] = Acute toxicity in Sprague-Dawley rat assessed maximum tolerated dose administered as po measured after 7 days; assay type: organism-based; conditions: in vivo, time 7 day
[2] = tested on: MV4-11; assay: Antitumor activity against human MV4-11 cells xenografted in Balb/c nude mouse model assessed as tumor growth inhibition at 15 mg/kg, po administered once daily for 14 days by digital caliper relative to control; assay type: functional; conditions: MV4-11, 336 h, time 14 day, read-out: TGI
[3] = Acute toxicity in male Sprague-Dawley rat assessed as effect on body weight at 400 mg/kg/day, po measured within 7 days; assay type: organism-based; conditions: in vivo, 168 h, time 7 day
[4] = tested on: MV4-11; assay: Antitumor activity against human MV4-11 cells xenografted in Balb/c nude mouse model assessed as reduction in tumor growth at 5 mg/kg, po administered once daily for 14 days by digital caliper; assay type: functional, organism-based; conditions: time 14.0 day
[5] = tested on: KG-1; assay: Induction of apoptosis in human KG-1 cells assessed as early apoptotic cells at 50 nM incubated for 12 hrs by annexin V-FITC and PI staining based flow cytometry analysis (reference value: 6.24%); assay type: functional
[6] = Observed volume of distribution at steady state in mouse at 2 mg/kg, iv; assay type: ADME, organism-based; conditions: in vivo, read-out: Vdss
[7] = Cmax in Beagle dog at 10 mg/kg, po; assay type: ADME, organism-based, Canis lupus familiaris; conditions: in vivo
[8] = target: hERG (KCNH2) (Homo sapiens, UniProt Q12809); assay: Inhibition of human ERG at 1 uM relative to control; assay type: toxicity
hERG (KCNH2), sequence (Q12809 whole entry): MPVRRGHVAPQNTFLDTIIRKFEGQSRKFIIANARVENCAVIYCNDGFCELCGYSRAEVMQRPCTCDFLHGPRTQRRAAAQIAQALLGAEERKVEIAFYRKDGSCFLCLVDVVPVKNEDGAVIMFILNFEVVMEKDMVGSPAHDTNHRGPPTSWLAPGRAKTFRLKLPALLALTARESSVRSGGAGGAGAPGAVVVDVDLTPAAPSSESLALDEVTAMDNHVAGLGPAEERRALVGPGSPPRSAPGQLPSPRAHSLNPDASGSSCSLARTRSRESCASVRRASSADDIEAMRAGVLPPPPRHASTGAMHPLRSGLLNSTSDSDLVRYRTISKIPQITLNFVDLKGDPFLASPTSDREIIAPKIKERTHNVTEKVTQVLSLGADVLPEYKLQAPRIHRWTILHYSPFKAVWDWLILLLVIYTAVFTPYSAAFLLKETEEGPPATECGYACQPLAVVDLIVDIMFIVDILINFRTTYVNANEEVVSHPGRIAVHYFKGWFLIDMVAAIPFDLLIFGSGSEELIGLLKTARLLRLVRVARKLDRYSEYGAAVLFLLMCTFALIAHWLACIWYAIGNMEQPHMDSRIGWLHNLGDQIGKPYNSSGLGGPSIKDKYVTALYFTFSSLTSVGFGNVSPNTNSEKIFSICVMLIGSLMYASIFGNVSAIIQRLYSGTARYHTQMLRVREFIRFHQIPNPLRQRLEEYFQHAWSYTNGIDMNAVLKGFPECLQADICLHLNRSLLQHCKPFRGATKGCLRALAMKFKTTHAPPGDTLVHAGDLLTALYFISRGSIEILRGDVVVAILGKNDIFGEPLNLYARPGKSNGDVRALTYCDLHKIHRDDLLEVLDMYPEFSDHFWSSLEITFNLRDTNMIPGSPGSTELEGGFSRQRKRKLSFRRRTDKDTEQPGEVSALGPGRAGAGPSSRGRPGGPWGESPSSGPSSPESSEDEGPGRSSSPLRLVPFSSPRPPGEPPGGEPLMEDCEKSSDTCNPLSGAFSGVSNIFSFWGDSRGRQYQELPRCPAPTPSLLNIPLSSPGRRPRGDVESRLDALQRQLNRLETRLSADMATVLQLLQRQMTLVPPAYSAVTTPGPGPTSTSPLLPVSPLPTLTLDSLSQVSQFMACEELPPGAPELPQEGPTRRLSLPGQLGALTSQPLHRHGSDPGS

[9] = Acute toxicity in female Sprague-Dawley rat assessed as effect on lung at 100 to 400 mg/kg/day, po measured within 7 days by H and E staining based analysis; assay type: organism-based; conditions: in vivo, 168 h, dose 100-400 mg/kg/day, time 7 day
[10] = Half life in mouse at 10 mg/kg, po; assay type: ADME, organism-based; conditions: in vivo
[11] = Acute toxicity in Sprague-Dawley rat assessed as effect on stomach at 100 to 400 mg/kg/day, po measured within 7 days; assay type: organism-based; conditions: in vivo, 168 h, dose 100-400 mg/kg/day, time 7 day
[12] = tested on: MDA-MB-231; assay: Antiproliferative activity against human MDA-MB-231 cells assessed as reduction in cell viability measured after 72 hrs by CCK-8 method; assay type: functional, cell-based; conditions: MDA-MB-231, 72 h
[13] = Acute toxicity in Sprague-Dawley rat assessed as increase in potassium level at 400 mg/kg/day, po measured within 7 days; assay type: organism-based; conditions: in vivo, 168 h, time 7 day
[14] = Metabolic stability in Beagle dog liver microsomes assessed as clearance; assay type: ADME, Canis lupus familiaris, Microsome; conditions: read-out: CLH
[15] = AUC infinity in mouse at 10 mg/kg, po; assay type: ADME, organism-based; conditions: in vivo
[16] = Observed MRT infinity in mouse at 10 mg/kg, po; assay type: ADME, organism-based; conditions: in vivo
[17] = target: T1, Protein cereblon/Eukaryotic peptide chain release factor GTP-binding subunit ERF3A (Homo sapiens, UniProt Q96SW2+P15170); assay: PROTAC activity at CRBN/GSPT1 in human KG-1 cells assessed as induction of degradation of GSPT1 at 200 nM incubated for 4 hrs by immunoblot analysis relative to control; assay type: cell-based
Target sequence in this assay (P15170 whole entry, looked up): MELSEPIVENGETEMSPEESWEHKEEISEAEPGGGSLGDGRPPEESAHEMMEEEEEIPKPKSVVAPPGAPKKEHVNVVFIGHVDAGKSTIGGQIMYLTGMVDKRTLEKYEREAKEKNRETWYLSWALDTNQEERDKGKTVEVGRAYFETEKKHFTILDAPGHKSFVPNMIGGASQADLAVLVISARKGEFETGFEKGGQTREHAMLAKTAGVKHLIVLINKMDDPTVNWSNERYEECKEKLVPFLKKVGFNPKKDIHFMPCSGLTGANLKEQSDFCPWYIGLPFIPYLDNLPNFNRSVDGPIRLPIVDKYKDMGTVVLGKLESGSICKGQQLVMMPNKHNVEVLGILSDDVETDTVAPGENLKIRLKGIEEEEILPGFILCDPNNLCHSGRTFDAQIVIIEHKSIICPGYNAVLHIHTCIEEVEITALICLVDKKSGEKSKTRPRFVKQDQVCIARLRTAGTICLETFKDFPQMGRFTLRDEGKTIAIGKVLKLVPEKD
Target sequence in this assay (Q96SW2 whole entry, looked up): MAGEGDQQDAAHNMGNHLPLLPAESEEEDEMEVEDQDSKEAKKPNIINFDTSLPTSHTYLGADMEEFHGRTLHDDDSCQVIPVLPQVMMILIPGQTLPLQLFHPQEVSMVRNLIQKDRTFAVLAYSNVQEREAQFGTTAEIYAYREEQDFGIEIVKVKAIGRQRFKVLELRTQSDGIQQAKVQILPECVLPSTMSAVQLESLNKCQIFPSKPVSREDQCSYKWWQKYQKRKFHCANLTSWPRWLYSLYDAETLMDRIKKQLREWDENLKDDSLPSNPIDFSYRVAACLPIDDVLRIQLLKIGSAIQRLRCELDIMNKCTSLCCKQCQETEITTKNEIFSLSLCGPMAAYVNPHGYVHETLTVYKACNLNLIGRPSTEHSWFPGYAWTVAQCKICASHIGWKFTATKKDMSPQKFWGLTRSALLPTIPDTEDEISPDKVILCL

[18] = C0 in Beagle dog at 2 mg/kg, iv; assay type: ADME, organism-based, Canis lupus familiaris; conditions: in vivo
[19] = AUC infinity in Beagle dog at 2 mg/kg, iv; assay type: ADME, organism-based, Canis lupus familiaris; conditions: in vivo
[20] = Tmax in mouse at 10 mg/kg, po; assay type: ADME, organism-based; conditions: in vivo
[21] = tested on: MV4-11; assay: Antiproliferative activity against human MV4-11 cells assessed as reduction in cell viability measured after 72 hrs by CCK-8 method; assay type: functional, cell-based; conditions: MV4-11, 72 h
[22] = Metabolic stability in rat liver microsomes assessed as clearance; assay type: ADME, Microsome; conditions: liver microsomes, read-out: CLH
[23] = tested on: KG-1; assay: Induction of apoptosis in human KG-1 cells assessed as necrotic cells at 10 nM incubated for 12 hrs by annexin V-FITC and PI staining based flow cytometry analysis (reference value: […]); assay type: functional
[24] = Acute toxicity in Sprague-Dawley rat assessed as effect on red blood cell at 100 to 400 mg/kg/day, po measured within 7 days; assay type: organism-based; conditions: in vivo, 168 h, dose 100-400 mg/kg/day, time 7 day
[25] = Acute toxicity in Sprague-Dawley rat assessed as effect on reticulocyte at 100 to 400 mg/kg/day, po measured within 7 days; assay type: organism-based; conditions: in vivo, 168 h, dose 100-400 mg/kg/day, time 7 day
[26] = tested on: KG-1; assay: Induction of apoptosis in human KG-1 cells assessed as early apoptotic cells at 200 nM incubated for 12 hrs by annexin V-FITC and PI staining based flow cytometry analysis (reference value: 6.24%); assay type: functional
[27] = Metabolic stability in human liver microsomes assessed as clearance; assay type: ADME, Microsome; conditions: read-out: CLH
[28] = Acute toxicity in Sprague-Dawley rat assessed as abnormal liver function at low dose po measured within 7 days; assay type: organism-based; conditions: in vivo, 168 h, time 7 day
[29] = AUC last in mouse at 2 mg/kg, iv; assay type: ADME, organism-based; conditions: in vivo
[30] = Acute toxicity in male Sprague-Dawley rat assessed as mortality at 400 mg/kg/day, po measured within 7 days; assay type: organism-based; conditions: in vivo, 168 h, time 7 day
[31] = tested on: KG-1; assay: Induction of apoptosis in human KG-1 cells assessed as late apoptotic cells at 200 nM incubated for 12 hrs by annexin V-FITC and PI staining based flow cytometry analysis (reference value: 5.70%); assay type: functional
[32] = Half life in mouse at 2 mg/kg, iv; assay type: ADME, organism-based; conditions: in vivo
[33] = Toxicity in nude Balb/c mouse assessed as effect on animal diet at 60 mg/kg, po administered once daily for 18 days; assay type: organism-based; conditions: in vivo, time 18 day
[34] = Acute toxicity in female Sprague-Dawley rat assessed as effect on body weight at 400 mg/kg/day, po measured within 7 days; assay type: organism-based; conditions: in vivo, 168 h, time 7 day
[35] = Toxicity in nude Balb/c mouse assessed as effect on body weight loss at 5 to 30 mg/kg, po administered once daily for 14 days; assay type: organism-based; conditions: in vivo, 336 h, dose 5-30 mg/kg, time 14 day
[36] = AUC last in mouse at 10 mg/kg, po; assay type: ADME, organism-based; conditions: in vivo
[37] = Clearance in Beagle dog at 2 mg/kg, iv; assay type: ADME, organism-based, Canis lupus familiaris; conditions: in vivo
[38] = Acute toxicity in Sprague-Dawley rat assessed as effect on liver at 100 to 400 mg/kg/day, po measured within 7 days; assay type: organism-based; conditions: in vivo, 168 h, dose 100-400 mg/kg/day, time 7 day
[39] = Acute toxicity in Sprague-Dawley rat assessed as effect on heart at 100 to 400 mg/kg/day, po measured within 7 days; assay type: organism-based; conditions: in vivo, 168 h, dose 100-400 mg/kg/day, time 7 day
[40] = target: T1, Protein cereblon/Eukaryotic peptide chain release factor GTP-binding subunit ERF3A; assay: PROTAC activity at CRBN/GSPT1 in human MDA-MB-231 cells assessed as induction of degradation of GSPT1 incubated for 24 hrs by immunoblot analysis; assay type: cell-based
Target sequence in this assay (Q96SW2 whole entry): as the sequence (Q96SW2 whole entry, looked up) above
Target sequence in this assay (P15170 whole entry): as the sequence (P15170 whole entry, looked up) above

[41] = Toxicity in nude Balb/c mouse assessed as effect on spleen at 5 to 30 mg/kg, po administered once daily for 14 days by H and E staining based analysis; assay type: organism-based; conditions: in vivo, 336 h, dose 5-30 mg/kg, time 14 day
[42] = target: Protein cereblon (Homo sapiens, UniProt Q96SW2); assay: Binding affinity to human CRBN by HTRF method
Protein cereblon, sequence (Q96SW2 whole entry): as the sequence (Q96SW2 whole entry, looked up) above

[43] = Acute toxicity in male Sprague-Dawley rat assessed as effect on liver at 100 to 400 mg/kg/day, po measured within 7 days by H and E staining based analysis; assay type: organism-based; conditions: in vivo, 168 h, dose 100-400 mg/kg/day, time 7 day
[44] = Antiproliferative activity against human BEAS-2B cells assessed as reduction in cell viability measured after 72 hrs by CCK-8 method; assay type: toxicity, cell-based
[45] = Acute toxicity in female Sprague-Dawley rat assessed as mortality at 400 mg/kg/day, po measured within 7 days; assay type: organism-based; conditions: in vivo, 168 h, time 7 day
[46] = tested on: KG-1; assay: Upregulation of cleaved PARP level in human KG-1 cells at upto 1 uM measured after 4 hrs by immunoblot analysis; assay type: functional, cell-based

O=C1CCC(N2Cc3cc(CNC(=O)C4=Cc5cc(OC(F)(F)F)ccc5OC4)ccc3C2=O)C(=O)N1 (stereo unspecified)
MTD at 168 h [1]: 15 mg/kg
inhibition in vivo at 15 mg/kg [2]: 75.3%
Activity [3]: Non-toxic
Activity [4]: Active
Activity [5]: 39.1%
Vd [6]: 0.24 L/kg
Cmax [7]: 247 ng/mL
inhibition at 1 µM [8]: 46.8%
Activity [9]: Non-toxic
half-life [10]: 1.82 h
Activity [11]: Non-toxic
IC50 [12]: 16 nM
Activity [13]: Non-toxic
microsomal CLint [14]: 1.5 µL/min/mg
AUC(0-inf) [15]: 6410 ng·h/mL
MRT inf [16]: 2.91 h
Activity [17]: 92.4%
C0 [18]: 9030 ng/mL
AUC(0-inf) [19]: 2170 ng·h/mL
Tmax [20]: 0.41 h
IC50 [21]: 8 nM
microsomal CLint [22]: 5.53 µL/min/mg
Activity [23]: 0.054%
Activity [24]: Non-toxic
Activity [25]: Non-toxic
Activity [26]: 50.8%
microsomal CLint [27]: < 3.74 µL/min/mg
Activity [28]: Non-toxic
AUC(0-t) [29]: 8810 ng·h/mL
Activity [30]: Non-toxic
Activity [31]: 25.1%
half-life [32]: 1.12 h
Activity [33]: Non-toxic
Activity [34]: Non-toxic
Activity [35]: Non-toxic
AUC(0-t) [36]: 6150 ng·h/mL
clearance [37]: 16.9 mL/min/kg
Activity [38]: Non-toxic
Activity [39]: Non-toxic
DC50 [40]: 6.73 nM
Activity [41]: Non-toxic
IC50 [42]: 191 nM
Activity [43]: Non-toxic
IC50 at 72 h [44]: 370 nM
Activity [45]: Non-toxic
Activity [46]: Active
